What follows are molecules tested against T1, B1R of the rat (Rattus norvegicus, UniProt P97583) (assay: FLIPR Ca2+ functional assay, B1R antagonism, rat B1R in CHO K1 cells). Conditions: test substance 10 μM; rB1R CHO K1 cells; agonist Des-Arg9 bradykinin at EC80; % of maximum achievable inhibition.
T1 construct: expressed in transfected cells; host or cells: CHO K1 cells (Chinese hamster ovary), stably transfected
T1 sequence (P97583 1-337): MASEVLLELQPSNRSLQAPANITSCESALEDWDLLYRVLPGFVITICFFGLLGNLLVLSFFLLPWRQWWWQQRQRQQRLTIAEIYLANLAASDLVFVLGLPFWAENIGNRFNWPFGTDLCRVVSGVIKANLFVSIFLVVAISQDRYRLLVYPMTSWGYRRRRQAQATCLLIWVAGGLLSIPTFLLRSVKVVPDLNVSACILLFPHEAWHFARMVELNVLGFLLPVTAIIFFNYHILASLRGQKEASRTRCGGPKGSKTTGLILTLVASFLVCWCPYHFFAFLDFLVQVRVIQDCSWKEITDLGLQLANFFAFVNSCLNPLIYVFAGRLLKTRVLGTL
Type: cell-based
Method in brief: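 Stably transfected CHO K1 cells loaded with Fluo-4; Ca2+ fluorescence read on FLIPR (ex 488/em 540 nm). Compound preincubated 10-20 min, then agonist at EC80: Lys-Des-Arg9 bradykinin (human) or Des-Arg9 bradykinin (rat). % inhibition vs maximal inhibition; IC50 from concentration series, n=2-3, N>=2.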

First: COc1cc(C)c(S(=O)(=O)N2CCn3cccc3C2CC(=O)N2CCN(c3ccc(Cl)c(Cl)c3)CC2)c(C)c1 (stereo not shown) [Example 238, 1-[4-(3,4-Dichlorophenyl)-piperazin-1-yl]-2-[2-[(4-methoxy-2,6-dimethyl-phenyl)sulfonyl]-1,2,3,4-tetrahydro-pyrrolo[1,2-a]pyrazin-1-yl]-ethanone]
Second: COc1cc(C)c(S(=O)(=O)N2CCn3cccc3C2CC(=O)N2CCN(Cc3ccc(Cl)cc3)CC2)c(C)c1 (stereo not shown) [Example 240, 1-[4-[(4-Chlorophenyl)-methyl]-piperazin-1-yl]-2-[2-[(4-methoxy-2,6-dimethyl-phenyl)sulfonyl]-1,2,3,4-tetrahydro-pyrrolo[1,2-a]pyrazin-1-yl]-ethanone]
The inhibition at 10 µM of the first is lower: 17.6% for the first, 55.9% for the second.

Compared with `COc1cc(C)c(S(=O)(=O)N2CCn3cccc3C2CC(=O)N2CCN(Cc3c(C)cc(C)cc3C)CC2)c(C)c1` (stereo not shown) [Example 239, 2-[2-[(4-Methoxy-2,6-dimethyl-phenyl)sulfonyl]-1,2,3,4-tetrahydro-pyrrolo[1,2-a]pyrazin-1-yl]-1-[4-[(2,4,6-trimethyl-phenyl)-methyl]-piperazin-1-yl]-ethanone], `COc1cc(C)c(S(=O)(=O)N2CCn3cccc3C2CC(=O)N2CCN(Cc3ccc(C)cc3)CC2)c(C)c1` (stereo not shown) [Example 241, 2-[2-[(4-Methoxy-2,6-dimethyl-phenyl)sulfonyl]-1,2,3,4-tetrahydro-pyrrolo[1,2-a]pyrazin-1-yl]-1-[4-(p-tolyl-methyl)-piperazin-1-yl]-ethanone] is higher in inhibition at 10 µM: -8.74% for the first, 46.8% for the second.

First: COc1ccc(CN2CCN(C(=O)CC3c4cccn4CCN3S(=O)(=O)c3c(C)cc(OC)cc3C)CC2)cc1 (stereo not shown) [Example 242, 2-[2-[(4-Methoxy-2,6-dimethyl-phenyl)sulfonyl]-1,2,3,4-tetrahydro-pyrrolo[1,2-a]pyrazin-1-yl]-1-[4-[(4-methoxyphenyl)-methyl]-piperazin-1-yl]-ethanone]
Second: COc1cc(C)c(S(=O)(=O)N2CCn3cccc3C2CC(=O)N2CCN(Cc3ccccc3F)CC2)c(C)c1 (stereo not shown) [Example 243, 1-[4-[(2-Fluorophenyl)-methyl]-piperazin-1-yl]-2-[2-[(4-methoxy-2,6-dimethyl-phenyl)sulfonyl]-1,2,3,4-tetrahydro-pyrrolo[1,2-a]pyrazin-1-yl]-ethanone]
The inhibition at 10 µM of the first is lower: 8.4% for the first, 29.4% for the second.

Compared with `COc1cc(C)c(S(=O)(=O)N2CCn3cccc3C2CC(=O)N2CCCCC2Cc2ccccn2)c(C)c1` (stereo not shown) [Example 244, 2-[2-[(4-Methoxy-2,6-dimethyl-phenyl)sulfonyl]-1,2,3,4-tetrahydro-pyrrolo[1,2-a]pyrazin-1-yl]-1-[2-(pyridin-2-yl-methyl)-piperidin-1-yl]-ethanone], `COc1cc(C)c(S(=O)(=O)N2CCn3cccc3C2CC(=O)N2CCCCC2Cc2ccncc2)c(C)c1` (stereo not shown) [Example 245, 2-[2-[(4-Methoxy-2,6-dimethyl-phenyl)sulfonyl]-1,2,3,4-tetrahydro-pyrrolo[1,2-a]pyrazin-1-yl]-1-[2-(pyridin-4-yl-methyl)-piperidin-1-yl]-ethanone] is higher in inhibition at 10 µM: -37.6% for the first, -21.5% for the second.

Going from `COc1cc(C)c(S(=O)(=O)N2CCn3cccc3C2CC(=O)N2CCN(Cc3ccc4c(c3)OCO4)CC2)c(C)c1` (stereo not shown) [Example 246, 1-[4-(1,3-Benzodioxol-5-yl-methyl)-piperazin-1-yl]-2-[2-[(4-methoxy-2,6-dimethyl-phenyl)sulfonyl]-1,2,3,4-tetrahydro-pyrrolo[1,2-a]pyrazin-1-yl]-ethanone] to `Cc1cccc(Cl)c1S(=O)(=O)N1CCn2cccc2C1CC(=O)N1CCN(Cc2ccc3c(c2)OCO3)CC1` (stereo not shown) [Example 252, 1-[4-(1,3-Benzodioxol-5-yl-methyl)-piperazin-1-yl]-2-[2-[(2-chloro-6-methyl-phenyl)sulfonyl]-1,2,3,4-tetrahydro-pyrrolo[1,2-a]pyrazin-1-yl]-ethanone], the inhibition at 10 µM falls from 6.85% to -10.5%.

Going from `COc1cc(C)c(S(=O)(=O)N2CCn3cccc3C2CC(=O)N2CCN(CCC#N)CC2)c(C)c1` (stereo not shown) [Example 247, 3-[4-[2-[2-[(4-Methoxy-2,6-dimethyl-phenyl)sulfonyl]-1,2,3,4-tetrahydro-pyrrolo[1,2-a]pyrazin-1-yl]-acetyl]-piperazin-1-yl]-propionitrile] to `COc1cc(C)c(S(=O)(=O)N2CCn3cccc3C2CC(=O)N2CCN(CCO)CC2)c(C)c1` (stereo not shown) [Example 258, 1-[4-(2-Hydroxy-ethyl)-piperazin-1-yl]-2-[2-[(4-methoxy-2,6-dimethyl-phenyl)sulfonyl]-1,2,3,4-tetrahydro-pyrrolo[1,2-a]pyrazin-1-yl]-ethanone], the inhibition at 10 µM rises from -27.4% to 9.05%.

Compared with `COc1cc(C)c(S(=O)(=O)N2CCn3cccc3C2CC(=O)NCC2CCCN(Cc3ccccc3)C2)c(C)c1` (stereo not shown) [Example 248, N-[(1-Benzyl-piperidin-3-yl)-methyl]-2-[2-[(4-methoxy-2,6-dimethyl-phenyl)sulfonyl]-1,2,3,4-tetrahydro-pyrrolo[1,2-a]pyrazin-1-yl]-acetamide], `COc1cc(C)c(S(=O)(=O)N2CCn3cccc3C2CC(=O)N2CCC(Cc3ccccc3)CC2)c(C)c1` (stereo not shown) [Example 257, 1-(4-Benzyl-piperidin-1-yl)-2-[2-[(4-methoxy-2,6-dimethyl-phenyl)sulfonyl]-1,2,3,4-tetrahydro-pyrrolo[1,2-a]pyrazin-1-yl]-ethanone] is lower in inhibition at 10 µM: 84% for the first, 75.5% for the second.

Going from `Cc1cccc(Cl)c1S(=O)(=O)N1CCn2cccc2C1CC(=O)N1CCN(Cc2ccc(Cl)cc2)CC1` (stereo not shown) [Example 249, 2-[2-[(2-Chloro-6-methyl-phenyl)sulfonyl]-1,2,3,4-tetrahydro-pyrrolo[1,2-a]pyrazin-1-yl]-1-[4-[(4-chlorophenyl)-methyl]-piperazin-1-yl]-ethanone] to `Cc1cccc(Cl)c1S(=O)(=O)N1CCn2cccc2C1CC(=O)N1CCN(CCC#N)CC1` (stereo not shown) [Example 253, 3-[4-[2-[2-[(2-Chloro-6-methyl-phenyl)sulfonyl]-1,2,3,4-tetrahydro-pyrrolo[1,2-a]pyrazin-1-yl]-acetyl]-piperazin-1-yl]-propionitrile], the inhibition at 10 µM falls from -12.6% to -39.1%.

Going from `Cc1cccc(Cl)c1S(=O)(=O)N1CCn2cccc2C1CC(=O)N1CCCCC1Cc1ccccn1` (stereo not shown) [Example 250, 2-[2-[(2-Chloro-6-methyl-phenyl)sulfonyl]-1,2,3,4-tetrahydro-pyrrolo[1,2-a]pyrazin-1-yl]-1-[2-(pyridin-2-yl-methyl)-piperidin-1-yl]-ethanone] to `Cc1cccc(Cl)c1S(=O)(=O)N1CCn2cccc2C1CC(=O)N1CCCCC1Cc1ccncc1` (stereo not shown) [Example 251, 2-[2-[(2-Chloro-6-methyl-phenyl)sulfonyl]-1,2,3,4-tetrahydro-pyrrolo[1,2-a]pyrazin-1-yl]-1-[2-(pyridin-4-yl-methyl)-piperidin-1-yl]-ethanone], the inhibition at 10 µM rises from -38% to -37.1%.

Compared with `O=C(CC1c2cccn2CCN1S(=O)(=O)c1ccc(C(F)(F)F)cc1Cl)NCC1CCCN(Cc2ccccc2)C1` (stereo not shown) [Example 254, N-[(1-Benzyl-piperidin-3-yl)-methyl]-2-[2-[[2-chloro-4-(trifluoromethyl)-phenyl]sulfonyl]-1,2,3,4-tetrahydro-pyrrolo[1,2-a]pyrazin-1-yl]-acetamide], `Cc1cccc(Cl)c1S(=O)(=O)N1CCn2cccc2C1CC(=O)N1CCN(c2ncc(C(F)(F)F)cc2Cl)CC1` (stereo not shown) [Example 262, 2-[2-[(2-Chloro-6-methyl-phenyl)sulfonyl]-1,2,3,4-tetrahydro-pyrrolo[1,2-a]pyrazin-1-yl]-1-[4-[3-chloro-5-(trifluoromethyl)-pyridin-2-yl]-piperazin-1-yl]-ethanone] is lower in inhibition at 10 µM: 8.85% for the first, -12.5% for the second.

First: COc1cc(C)c(S(=O)(=O)N2CCn3cccc3C2CC(=O)N2CCCCCC2c2ccc(N(C)C)cc2)c(C)c1 (stereo not shown) [Example 255, 1-[2-(4-Dimethylaminophenyl)-azepan-1-yl]-2-[2-[(4-methoxy-2,6-dimethyl-phenyl)sulfonyl]-1,2,3,4-tetrahydro-pyrrolo[1,2-a]pyrazin-1-yl]-ethanone]
Second: COc1cc(C)c(S(=O)(=O)N2CCn3cccc3C2CC(=O)N(C)C(CN2CCOCC2)c2ccccc2)c(C)c1 (stereo not shown) [Example 256, 2-[2-[(4-Methoxy-2,6-dimethyl-phenyl)sulfonyl]-1,2,3,4-tetrahydro-pyrrolo[1,2-a]pyrazin-1-yl]-N-methyl-N-(2-morpholin-4-yl-1-phenyl-ethyl)-acetamide]
The inhibition at 10 µM of the first is lower: -7.23% for the first, 5.54% for the second.

First: Cc1cccc(Cl)c1S(=O)(=O)N1CCn2cccc2C1CC(=O)N(C)C(CN1CCOCC1)c1ccccc1 (stereo not shown) [Example 259, 2-[2-[(2-Chloro-6-methyl-phenyl)sulfonyl]-1,2,3,4-tetrahydro-pyrrolo[1,2-a]pyrazin-1-yl]-N-methyl-N-(2-morpholin-4-yl-1-phenyl-ethyl)-acetamide]
Second: Cc1cccc(Cl)c1S(=O)(=O)N1CCn2cccc2C1CC(=O)N1CCN(c2ncccc2C#N)CC1 (stereo not shown) [Example 261, 2-[4-[2-[2-[(2-Chloro-6-methyl-phenyl)sulfonyl]-1,2,3,4-tetrahydro-pyrrolo[1,2-a]pyrazin-1-yl]-acetyl]-piperazin-1-yl]-pyridine-3-carbonitrile]
The inhibition at 10 µM of the first is lower: 4.54% for the first, 29.8% for the second.

`Cc1cccc(Cl)c1S(=O)(=O)N1CCn2cccc2C1CC(=O)N1CCC[C@H]1CN1CCCC1` (stereo partly drawn) [Example 260, 2-[2-[(2-Chloro-6-methyl-phenyl)sulfonyl]-1,2,3,4-tetrahydro-pyrrolo[1,2-a]pyrazin-1-yl]-1-[(2S)-2-(pyrrolidin-1-yl-methyl)-pyrrolidin-1-yl]-ethanone] showed an inhibition at 10 µM of -11.4%.

Reference: patent US8158628B2, “Sulfonylated 1,2,3,4-tetrahydropyrrolo[1,2-a]pyrazine compounds and their use as pharmaceuticals” (Gruenenthal GmbH, priority 2009, dated 2012)
